This is an account of results in patent US20250092395A1, “A GLUN2D INHIBITOR FOR USE IN THE TREATMENT OR RELAPSE PREVENTION OF A DEPRESSIVE EPISODE” (priority 2022, published 2025).

The structures appear in SMILES notation. Entries after “also recorded” stand apart in the source; their conditions may differ.

The test system of experiment [1] is SOM-dependent feedback loop, CA1 PCs. The experiment is described as follows: Feedback loop-activating protocol (FLAP) in CA1 PCs. Type of experiment: cell-based, mice. The method, then: A 300 ms depolarizing current between +100 and +[…] was injected via the patch pipette into a PC to elicit a train of 5-10 APs. After an interval of 600 ms, one EPSP (5-10 mV amplitude) was elicited by Schaffer collateral stimulation. This pattern was continuously repeated at a frequency of 0.2 Hz. Substances were added by bath application after a stable 10 min baseline recording for an additional 20 min. For data analysis the maximum EPSP amplitudes from minutes 0-10 were averaged and compared to averaged maximum EPSP amplitudes from minutes 20-30.
The slope of the EPSP rise at 20% to 40% of its maximal amplitude, at which point an approximately linear increase in its voltage could be assumed, was fitted with Fitmaster software (HEKA, Germany). We analyzed 20 EPSPs before and 20 EPSPs 25-30 minutes after NAB-14 wash-in in the FLAP protocol for each experiment. The coefficient of variation (CV) is the standard deviation of the EPSP slopes divided by the mean. The inverse square of the CV of the postwash-in slopes was divided by the inverse square of the prewash-in slopes and plotted against the corresponding normalized slopes. Pre- and postwash-in measurements from a single experiment are connected by a line. In a standard quantal model for synaptic transmission, synaptic responses are affected either by presynaptic changes in the number of release sites and/or the probability of release or by modifications of the postsynaptic response to a single […]. A change in the ratio of CV-2 reflects a presynaptic action, whereas horizontal lines in the CV-2 plot indicate a change in postsynaptic responsiveness.

Experiment [2] shares this test system. The experiment is described as above. The class given is cell-based, mice. This is another data set of the same source.

`CN1C(=O)CN=C(c2ccccc2)c2cc(Cl)ccc21` [diazepam]: the “NAB-14-induced increase in EPSP amplitude in FLAP, in presence of diazepam” value in experiment [1] is recorded as “abolished; also recorded: prevented”. The “EPSP amplitude in the absence of AP bursts” value in experiment [2] is recorded as “neither NAB14 nor diazepam wash-in significantly altered the EPSP amplitude; also recorded: no significant pre/post changes”.
